One experiment deals with bleeding wounds. Put plainly: Treatment of bleeding wounds for hemostasis. Type of experiment: in vivo. The conditions noted are these: used for hemostasis. The source says:
The inventors determined that the mechanism of this phenomenon was the dehydration, atrophy, and elimination of blood and blood tissues, rather than the well-known mechanism of an astringent of Monsell in the literature in which hemostasis was caused by forming a thrombus of blood platelet and fibrin, aggregation of erythrocyte, and accelerated coagulation of blood.

The test system of a further experiment is related diseases. The experiment can be described thus: Clinical experiment observations (overall statement). The conditions noted are these: human, in vivo.

On to ferric subsulfate, for which the “observation on bleeding wounds” value in the experiment with bleeding wounds is listed as “formation of black solid particulate matter was observed”. For the same substance, the “clinical use to treat related diseases” value in the experiment with related diseases is listed as “successfully used”.

Source of the values: patent US8840931B2, “Pharmaceutical compositions for dehydrating, atrophying and eliminating pathological tissues” (priority 2008, dated 2014).
